Values of other authors in patent publication US20250356483A1, “Quality Control Of In-Vitro Analysis Sample Output” (Sanofi, priority 2022, published 2025).

System: liver cells
Conditions: CPZ@60 micro moles

Structure (SMILES): CN(C)CCCN1c2ccccc2Sc2ccc(Cl)cc21 [CPZ, Chlorpromazine]
- known toxic effect of reference compound (positive control): toxic to liver cells and triggers cholestasis
